Test results taken from patent US20240376084A1, “INHIBITORS OF ALPHA-HEMOLYSIN OF STAPHYLOCOCCUS AUREUS” (Helmholtz-Zentrum Fur Infektionsforschung GmbH, priority 2021, published 2024).

Target: hemolysin alpha from Staphylococcus aureus (Staphylococcus aureus, UniProt P09616)
Assay: cell-based

Chain of hemolysin alpha from Staphylococcus aureus (P09616 27-319 limits assumed): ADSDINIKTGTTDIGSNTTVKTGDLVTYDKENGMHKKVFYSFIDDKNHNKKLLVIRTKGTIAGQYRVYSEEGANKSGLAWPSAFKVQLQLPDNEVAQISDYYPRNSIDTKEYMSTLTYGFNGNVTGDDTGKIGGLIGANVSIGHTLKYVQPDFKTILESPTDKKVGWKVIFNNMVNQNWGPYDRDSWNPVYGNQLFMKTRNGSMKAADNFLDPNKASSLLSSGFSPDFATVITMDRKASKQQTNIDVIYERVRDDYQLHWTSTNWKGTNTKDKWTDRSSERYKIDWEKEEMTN

`Cc1cc2[nH]c(=O)c(=O)[nH]c2cc1S(=O)(=O)Nc1ccc(N2CCOC(C)C2)c(Cl)c1` (centres unmarked) [Compound 204, N-(3-chloro-4-(2-methylmorpholino)phenyl)-7-methyl-2,3-dioxo-1,2,3,4-tetrahydroquinoxaline-6-sulfonamide] and `Cc1cc2[nH]c(=O)c(=O)[nH]c2cc1S(=O)(=O)Nc1ccc(N2CCOCC2)c(Cl)c1` [Compound 200, N-(3-chloro-4-morpholinophenyl)-7-methyl-2,3-dioxo-1,2,3,4-tetrahydroquinoxaline-6-sulfonamide] fall in the same range of EC50: 1 to 3.5 µM for the first, 1 to 3.5 µM for the second.

`Cc1nc2cc(NS(=O)(=O)c3cc4[nH]c(=O)c(=O)[nH]c4cc3C)ccc2s1` [Compound 234, 7-methyl-N-(2-methylbenzo[d]thiazol-5-yl)-2,3-dioxo-1,2,3,4-tetrahydroquinoxaline-6-sulfonamide] and `Cc1nc2ccc(NS(=O)(=O)c3cc4[nH]c(=O)c(=O)[nH]c4cc3C)cc2s1` [Compound 239, 7-methyl-N-(2-methylbenzo[d]thiazol-6-yl)-2,3-dioxo-1,2,3,4-tetrahydroquinoxaline-6-sulfonamide] fall in the same range of EC50: 1 to 3.5 µM for the first, 1 to 3.5 µM for the second.

First: Cc1cc2[nH]c(=O)c(=O)[nH]c2cc1S(=O)(=O)Nc1ccc(N2CCOCC2C)c(Cl)c1 (centres unmarked) [Compound 201, N-(3-chloro-4-(3-methylmorpholino)phenyl)-7-methyl-2,3-dioxo-1,2,3,4-tetrahydroquinoxaline-6-sulfonamide]
Second: Cc1cc2[nH]c(=O)c(=O)[nH]c2cc1S(=O)(=O)Nc1ccc(N2CCCOCC2)c(Cl)c1 [Compound 208, N-(3-chloro-4-(1,4-oxazepan-4-yl)phenyl)-7-methyl-2,3-dioxo-1,2,3,4-tetrahydroquinoxaline-6-sulfonamide]
The EC50 of the first is lower: 0.1 to 1 µM for the first, 1 to 3.5 µM for the second. The first is the more potent here.

First: COc1ccc(-c2ccc(NS(=O)(=O)c3cc4[nH]c(=O)c(=O)[nH]c4cc3C)cc2Cl)cc1C(N)=O [Compound 395, 5-[2-chloro-4-[(7-methyl-2,3-dioxo-1,4-dihydroquinoxalin-6-yl)sulfonylamino]phenyl]-2-methoxy-benzamide]
Second: Cc1cc2[nH]c(=O)c(=O)[nH]c2cc1S(=O)(=O)Nc1cnc(-c2ccc(F)c(Cl)c2)c(Cl)c1 [Compound 214, N-(5-chloro-6-(3-chloro-4-fluorophenyl)pyridin-3-yl)-7-methyl-2,3-dioxo-1,2,3,4-tetrahydroquinoxaline-6-sulfonamide]
The EC50 of the first is higher: 1 to 3.5 µM for the first, 0.1 to 1 µM for the second.

`Cc1cc2[nH]c(=O)c(=O)[nH]c2cc1S(=O)(=O)Nc1ccc2cccnc2c1` [Compound 231, 7-methyl-2,3-dioxo-N-(quinolin-7-yl)-1,2,3,4-tetrahydroquinoxaline-6-sulfonamide] and `Cc1cc2[nH]c(=O)c(=O)[nH]c2cc1S(=O)(=O)Nc1cnc(-c2cccc(Cl)c2)c(Cl)c1` [Compound 213, N-(5-chloro-6-(3-chlorophenyl)pyridin-3-yl)-7-methyl-2,3-dioxo-1,2,3,4-tetrahydroquinoxaline-6-sulfonamide] fall in the same range of EC50: 0.1 to 1 µM for the first, 0.1 to 1 µM for the second.

`Cc1cc2[nH]c(=O)c(=O)[nH]c2cc1S(=O)(=O)Nc1ccc(-c2ccc(F)cc2)c(S(C)(=O)=O)c1` [Compound 397, N-[4-(4-fluorophenyl)-3-methylsulfonyl-phenyl]-7-methyl-2,3-dioxo-1,4-dihydroquinoxaline-6-sulfonamide] and `Cc1cc2[nH]c(=O)c(=O)[nH]c2cc1S(=O)(=O)Nc1cnn(-c2ccccc2)c1` [Compound 207, 7-methyl-2,3-dioxo-N-(1-phenyl-1H-pyrazol-4-yl)-1,2,3,4-tetrahydroquinoxaline-6-sulfonamide] fall in the same range of EC50: 1 to 3.5 µM for the first, 1 to 3.5 µM for the second.

First: O=c1[nH]c2cc3c(cc2[nH]c1=O)S(=O)(=O)N(c1ccc(OC(F)(F)F)cc1)CCO3 [Compound 237]
Second: CN(C)c1cc2[nH]c(=O)c(=O)[nH]c2cc1S(=O)(=O)Nc1ccc(OC(F)(F)F)cc1 [Compound 221, 7-(dimethylamino)-2,3-dioxo-N-(4-(trifluoromethoxy)phenyl)-1,2,3,4-tetrahydroquinoxaline-6-sulfonamide]
The EC50 of the first is higher: 0.1 to 1 µM for the first, 0.03 to 0.1 µM for the second. The second is the more potent here.

Molecule `O=c1[nH]c2cc(C(F)(F)F)c(S(=O)(=O)Nc3ccc(OC(F)(F)F)cc3)cc2[nH]c1=O` [Compound 190, 2,3-Dioxo-N-(4-(trifluoromethoxy)phenyl)-7-trifluoromethyl-1,2,3,4-tetrahydroquinoxaline-6-sulfonamide] has an EC50 of 0.1 to 1 µM.

Compared with `Cc1cc2[nH]c(=O)c(=O)[nH]c2cc1S(=O)(=O)Nc1cc(C)c(-c2cn[nH]c2)c(C)c1` [Compound 187, N-(3,5-dimethyl-4-(1H-pyrazol-4-yl)phenyl)-7-methyl-2,3-dioxo-1,2,3,4-tetrahydroquinoxaline-6-sulfonamide], `Cc1cc2[nH]c(=O)c(=O)[nH]c2cc1S(=O)(=O)Nc1cc(C)c(-c2ccncc2)c(C)c1` [Compound 131, N-(3,5-dimethyl-4-(pyridin-4-yl)phenyl)-7-methyl-2,3-dioxo-1,2,3,4-tetrahydroquinoxaline-6-sulfonamide] is lower in IC50: 1 to 3.5 µM for the first, 0.1 to 1 µM for the second. The second is the more potent here.

Compared with `Cc1cc(NS(=O)(=O)c2cc3[nH]c(=O)c(=O)[nH]c3cc2Cl)cc(C)c1-c1ccncc1` [Compound 157, 7-chloro-N-(3,5-dimethyl-4-(pyridin-4-yl)phenyl)-2,3-dioxo-1,2,3,4-tetrahydroquinoxaline-6-sulfonamide], `Cc1cc(NS(=O)(=O)c2cc3[nH]c(=O)c(=O)[nH]c3cc2F)cc(C)c1-c1ccoc1` [Compound 166, 7-fluoro-N-(4-(furan-3-yl)-3,5-dimethylphenyl)-2,3-dioxo-1,2,3,4-tetrahydroquinoxaline-6-sulfonamide] is lower in IC50: 1 to 3.5 µM for the first, 0.1 to 1 µM for the second. The second is the more potent here.

`CC(C)c1cc2[nH]c(=O)c(=O)[nH]c2cc1S(=O)(=O)Nc1ccc(C2CC2)cc1` [Compound 153, N-(4-cyclopropylphenyl)-7-isopropyl-2,3-dioxo-1,2,3,4-tetrahydroquinoxaline-6-sulfonamide] and `CC(C)c1cc2[nH]c(=O)c(=O)[nH]c2cc1S(=O)(=O)Nc1ccc(-c2ccccc2)c(Cl)c1` [Compound 176, N-(2-chloro-[1,1′-biphenyl]-4-yl)-7-isopropyl-2,3-dioxo-1,2,3,4-tetrahydroquinoxaline-6-sulfonamide] fall in the same range of IC50: 0.1 to 1 µM for the first, 0.1 to 1 µM for the second.

First: Cc1ccc(-c2ccc(NS(=O)(=O)c3cc4[nH]c(=O)c(=O)[nH]c4cc3F)cc2Cl)o1 [Compound 158, N-(3-chloro-4-(5-methylfuran-2-yl)phenyl)-7-fluoro-2,3-dioxo-1,2,3,4-tetrahydroquinoxaline-6-sulfonamide]
Second: Cc1cc2[nH]c(=O)c(=O)[nH]c2cc1S(=O)(=O)Nc1ccc(F)c(Cl)c1 [Compound 183, N-(3-chloro-4-fluorophenyl)-7-methyl-2,3-dioxo-1,2,3,4-tetrahydroquinoxaline-6-sulfonamide]
The IC50 of the first is lower: 0.1 to 1 µM for the first, 1 to 3.5 µM for the second. The first is the more potent here.

`Cc1ccc(-c2ccc(NS(=O)(=O)c3cc4[nH]c(=O)c(=O)[nH]c4cc3C)cc2)cc1` [Compound 115, 7-methyl-N-(4′-methyl-[1,1′-biphenyl]-4-yl)-2,3-dioxo-1,2,3,4-tetrahydroquinoxaline-6-sulfonamide] and `Cc1ccc(-c2ccc(NS(=O)(=O)c3cc4[nH]c(=O)c(=O)[nH]c4cc3C)cc2)c(C)c1` [Compound 118, N-(2′,4′-dimethyl-[1,1′-biphenyl]-4-yl)-7-methyl-2,3-dioxo-1,2,3,4-tetrahydroquinoxaline-6-sulfonamide] fall in the same range of IC50: 0.1 to 1 µM for the first, 0.1 to 1 µM for the second.

In the case of `Cc1ccc(NS(=O)(=O)c2cc3[nH]c(=O)c(=O)[nH]c3cc2C)cc1C` [Compound 185, N-(3,4-dimethylphenyl)-7-methyl-2,3-dioxo-1,2,3,4-tetrahydroquinoxaline-6-sulfonamide], the IC50 is reported as 1 to 3.5 µM.
